Reference: PMC8652888, “Angiogenesis, Anti-Tumor, and Anti-Metastatic Activity of Novel α-Substituted Hetero-Aromatic Chalcone Hybrids as Inhibitors of Microtubule Polymerization” (Frontiers in Chemistry, 2021)
Where “and” joins values, the source holds several entries; their conditions need not be identical. Identical values can stand only once. Like-named read-outs stand apart in the source and are kept apart here.

Tests used:
Assay type in all cases: cell-based, human
[1] = test system: MCF-7, U937, HepG2 and MGC-803 cells; test: Antiproliferative activity, cancer cell panel (text summaries); details: U937, MCF7, HepG2; read-out: IC50 against three cancer cells
Protocol: The synthesized compounds were first evaluated for their cytotoxic effect on MCF-7 (human breast adenocarcinoma), U937 (histiocytic lymphoma cancer), HepG2 (human liver cancer) cells, and MGC-803 (human gastric cancer) using the SRB and CCK-8 assay. As reference compounds CA-4 and colchicine were included.
The primary tumor cells were purchased from a professional biomedical company. First, the primary tumor cells were incubated in a cell culture incubator at 37°C and 5% CO2. After the cell fusion reached 85%–95%, subculture was performed, and the tumor cells obtained at this time were used for subsequent related experiments. The CCK-8 method was used to inhibit the proliferation of U937 tumor cells, and the SRB method was used to inhibit the proliferation of MCF7 and HepG2 tumor cells.
Cells were distributed into 96-well plates with a density of 3 × 10^3–4 × 10^3 cells per well and incubated for 24 h in a 5% CO2 incubator at 37°C, followed by treatment with study compounds at different concentrations at 37°C for 72 h. One hundred microliters of 10% (w/v) trichloroacetic acid was added to each well, fixed at 4°C for 30 min, and dried at 65°C. Then 100 μl of 0.4% SRB was added to each well and stained on a shaker for 20 min at room temperature. The excess dye solution was washed with newly prepared 1% glacial acetic acid and dried at 65°C. One hundred fifty microliters of 10 mM unbuffered Trisbase was added to each well of the plate and shaken for 5 min to dissolve the dye. The microplate reader measured the optical density (OD) at a wavelength of 560 nm.
The cells in the logarithmic growth phase were seeded in a 96-well plate at 8,000/well, and the drug-containing medium and cell suspension were added to the well. Three wells were added with the blank medium as the blank group. The 96-well plate was incubated for 72 h in a 37°C, 5% CO2 incubator. The 10 μl of CCK-8 dye solution was added to each well, and the incubation continued for 3–4 h.

normal liver LO2 cells = test: Growth inhibition of normal cells
[2] = test system: Cyclin B1, p-Cdc2 and P21 in MCF-7 cells; test: Western blot of cell cycle-related proteins; details: for P21, band quantification / cyclinB1, band quantification / pcdc2, band quantification: two runs
Protocol: Cell cycle regulatory proteins Cyclin B1 and Cdc2 are key proteins to control the transition from G2 to M phase through increasing the G2/M intracellular fraction in cell cycle distribution. Some agents produce cell cycle arrest by decreasing Cyclin B1 level ([Xiao et al., 2018]), while others increase the Cyclin B1 level, depending on the cell types ([Zhang et al., 2016]).
MCF-7 cells were seeded into […] dishes at a density of 6 × 10^5/dish and incubated for 24 h. After treating the cells with the compound 7m, the cells were cultured for 48 h and washed with PBS, and then the soluble and insoluble tubulin fractions were collected. Protein quantification was performed by BCA Protein Concentration Determination Kit following centrifugation at 12,000 rpm for 10 min at 4°C. Cell lysates were separated by SDS-PAGE at 80 V constant voltage for 30–40 min. […] After 5% skim milk was blocked for 1 h, the primary antibody was added and incubated overnight before being washed three times with PBST. The secondary antibody was incubated for 2 h at room temperature the next day and subsequently washed three times with PBST. Then the signal was detected with ECL.

MCF-7 cells = test: Cell cycle analysis, flow cytometry with PI staining; details: for G2/M cells: 24 h; for G0/G1, single runs / G0/G1 AVERAGE / G2/M, single runs / S AVERAGE / S, single runs / G2/M AVERAGE: flowjo raw data
Protocol: It is known that tubulin inhibitors block the cell cycle in the G2/M phase because of microtubule depolymerization and cytoskeleton disruption. Therefore, the effects of 7m on cell cycle progression of MCF-7 cells were analyzed by flow cytometry with PI staining. MCF-7 cells were treated with different concentrations (0, 100, 200, and 400 nM) of compound 7m for 24 h and 200 nM 7m at different times (0, 6, 12, and 24 h), respectively. […] When the concentration was increased to 200 and 400 nM, cells of 47% and 56% G2/M phase arrest were observed, respectively. Similarly, this phenomenon occurred after treatment with 200 nM 7m from 0 to 24 h.
MCF-7 cells were seeded into six-well plates (5 × 10^5 cells/well) and incubated at 37°C in a humidified 5% CO2 incubator for 24 h, and then treated with or without compound 7m at indicated concentrations (100, 200, 400 nM). The collected cells were fixed by adding 70% of ethanol at −20°C for 12 h. The cells were then washed with PBS, incubated with […] of RNase at 37°C for 30 min, and stained with […] of propidium iodide for 15 min, and finally subjected to flow cytometry.

With “3-(benzofuran-6-yl)-2-methyl-1-(3,4,5-trimethoxyphenyl)prop-2-en-1-one [Compound 7m]” the IC50 [1] was 70 to 183 nM, the Selectivity ratio (normal liver LO2 cells; (IC50 human normal cells LO2)/(IC50 MCF7)) was 4.9 and the IC50 (normal liver LO2 cells; three single determinations, read-out: L02 (raw data of table 3, IC50)) was 885 nM and 871 nM and 914 nM. The IC50 (normal liver LO2 cells; triplicate, read-out: IC50 ± SD, LO2) was 890 ± 14 nM, the “P21, band quantification” value ([2]; 100nM) was 0.4949 and 0.5407 and the “cyclinB1, band quantification” value ([2]; 100nM) was 1.376 and 1.378. For the same substance, the “pcdc2, band quantification” value ([2]; 100nM) was 0.4445 and 0.4619, the “P21, band quantification” value ([2]; 200nM) was 0.4098 and 0.48 and the “cyclinB1, band quantification” value ([2]; 200nM) was 1.5822 and 1.545. For the same substance, the “pcdc2, band quantification” value ([2]; 200nM) was 0.4706 and 0.4291, the “P21, band quantification” value ([2]; 400nM) was 0.006743 and 0.008008 and the “cyclinB1, band quantification” value ([2]; 400nM) was 1.8972 and 1.928. For the same substance, the “pcdc2, band quantification” value ([2]; 400nM) was 0.2956 and 0.3089, the “Cyclin B1 expression” value ([2]; 100, 200, 400 nM) was “overexpressed” and the p-Cdc2 protein level ([2]; 100, 200, 400 nM) was “dose-dependently decreased”. For the same substance, the G2/M cells (MCF-7 cells; 100 nM) was 26%, the “G0/G1, single runs” value (MCF-7 cells; 100nM) was 61.76 and 47.12 and the “G0/G1 AVERAGE” value (MCF-7 cells; 100nM) was 54.44. The “G2/M, single runs” value (MCF-7 cells; 100nM) was 15.14 and 28.34, the “S AVERAGE” value (MCF-7 cells; 100nM) was 23.82 and the “S, single runs” value (MCF-7 cells; 100nM) was 23.1 and 24.54. The “G0/G1, single runs” value (MCF-7 cells; 200nM dose series) was 40.1 and 25.72, the “G0/G1 AVERAGE” value (MCF-7 cells; 200nM dose series) was 32.91 and the “G2/M, single runs” value (MCF-7 cells; 200nM dose series) was 40.78 and 56.03. The “S AVERAGE” value (MCF-7 cells; 200nM dose series) was 18.685, the “S, single runs” value (MCF-7 cells; 200nM dose series) was 19.12 and 18.25 and the “G0/G1, single runs” value (MCF-7 cells; 200nM, 6h) was 55.81 and 61.73. For the same substance, the “G0/G1 AVERAGE” value (MCF-7 cells; 200nM, 6h) was 58.77, the “G2/M AVERAGE” value (MCF-7 cells; 200nM, 6h) was 29.28 and the “G2/M, single runs” value (MCF-7 cells; 200nM, 6h) was 36.18 and 22.38. For the same substance, the “S AVERAGE” value (MCF-7 cells; 200nM, 6h) was 15.51, the “G0/G1, single runs” value (MCF-7 cells; 200nM, 12h) was 34.65 and 32.01 and the “G0/G1 AVERAGE” value (MCF-7 cells; 200nM, 12h) was 33.33. The “G2/M AVERAGE” value (MCF-7 cells; 200nM, 12h) was 41.805, the “G2/M, single runs” value (MCF-7 cells; 200nM, 12h) was 44.73 and 38.88 and the “S AVERAGE” value (MCF-7 cells; 200nM, 12h) was 25.405. For the same substance, the “S, single runs” value (MCF-7 cells; 200nM, 12h) was 23.93 and 26.88, the G2/M cells (MCF-7 cells; 200 nM, dose series (Fig 6A)) was 47% and the “G0/G1, single runs” value (MCF-7 cells; 200nM, 24h) was 6.61 and 3.51. For the same substance, the “G0/G1 AVERAGE” value (MCF-7 cells; 200nM, 24h) was 5.06, the “G2/M AVERAGE” value (MCF-7 cells; 200nM, 24h) was 91.725 and the “G2/M, single runs” value (MCF-7 cells; 200nM, 24h) was 93.1 and 90.35. For the same substance, the “S AVERAGE” value (MCF-7 cells; 200nM, 24h) was 5.79, the “G0/G1, single runs” value (MCF-7 cells; 400nM) was 16.1 and 15.39 and the “G0/G1 AVERAGE” value (MCF-7 cells; 400nM) was 15.745. The “G2/M AVERAGE” value (MCF-7 cells; 400nM) was 67.3, the “G2/M, single runs” value (MCF-7 cells; 400nM) was 66.98 and 67.62 and the “S AVERAGE” value (MCF-7 cells; 400nM) was 16.955. For the same substance, the “S, single runs” value (MCF-7 cells; 400nM) was 16.92 and 16.99.
